Reference: patent US9273033B2, “Substituted pyridone derivatives as PDE10 inhibitors” (Merck Sharp & Dohme Corp., priority 2012, dated 2016)

Target: human PDE10A2 (Homo sapiens (Human), UniProt Q9Y233)
Assay: PDE10 fluorescence polarization (IMAP FP) inhibition assay
Type: biochemical
Details: human PDE10A2, FAM-labeled cAMP substrate, read-out: PDE10A Ki
How it was run: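 Cytoplasmic lysate of AD293 cells transiently expressing human PDE10A2 (diluted to ~20% substrate conversion) incubated 30 min at room temperature with 50 nM FAM-cAMP in Tris pH 7.2 buffer with MgCl2, DTT. Activity read by IMAP fluorescence polarization. 0% inhibition set with 1% DMSO, 100% with reference PDE10 inhibitor.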

human PDE10A2, sequence (Q9Y233 267-1055): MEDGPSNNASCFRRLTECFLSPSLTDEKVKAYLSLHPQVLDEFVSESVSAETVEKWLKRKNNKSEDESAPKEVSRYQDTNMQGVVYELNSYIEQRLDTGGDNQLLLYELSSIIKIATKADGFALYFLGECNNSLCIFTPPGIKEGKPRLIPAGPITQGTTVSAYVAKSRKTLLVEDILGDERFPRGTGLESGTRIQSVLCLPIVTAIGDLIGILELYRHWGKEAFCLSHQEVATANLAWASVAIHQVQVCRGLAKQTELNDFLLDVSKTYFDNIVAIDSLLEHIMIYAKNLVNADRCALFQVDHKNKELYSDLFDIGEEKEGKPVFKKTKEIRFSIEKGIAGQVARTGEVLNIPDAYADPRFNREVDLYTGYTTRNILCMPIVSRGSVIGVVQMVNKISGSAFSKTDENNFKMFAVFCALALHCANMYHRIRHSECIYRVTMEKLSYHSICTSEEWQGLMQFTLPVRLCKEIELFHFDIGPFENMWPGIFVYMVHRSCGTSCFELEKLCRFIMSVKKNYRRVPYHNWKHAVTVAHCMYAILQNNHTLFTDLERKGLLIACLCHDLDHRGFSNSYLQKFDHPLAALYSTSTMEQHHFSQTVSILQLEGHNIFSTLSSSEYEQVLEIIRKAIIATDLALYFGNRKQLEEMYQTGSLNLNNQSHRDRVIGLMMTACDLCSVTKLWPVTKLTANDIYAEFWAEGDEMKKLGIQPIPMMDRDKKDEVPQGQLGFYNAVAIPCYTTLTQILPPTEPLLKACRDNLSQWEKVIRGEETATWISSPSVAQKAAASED

COc1ccc([C@H]2C[C@@H]2COc2nc(C)ncc2-c2ccc(=O)[nH]n2)nc1 [Example 63, 6-(4-(((1S,2S)-2-(5-methoxypyridin-2-yl)cyclopropyl)methoxy)-2-methylpyrimidin-5-yl)pyridazin-3(2H)-one]
Ki: 4.42 nM

COc1ccc([C@H]2C[C@@H]2COc2nc(C)ncc2-c2ccc(=O)n(OC)c2)nc1 [Example 22, 1-methoxy-5-(4-(((1S,2S)-2-(5-methoxypyridin-2-yl)cyclopropyl)methoxy)-2-methylpyrimidin-5-yl)pyridin-2(1H)-one]
Ki: 1.9 nM

COc1ccc([C@H]2C[C@@H]2COc2nc(C)ncc2-c2cnn(C)c(=O)c2Cl)nc1 [Example 137, 4-chloro-5-(4-(((1S,2S)-2-(5-methoxypyridin-2-yl)cyclopropyl)methoxy)-2-methylpyrimidin-5-yl)-2-methylpyridazin-3(2H)-one]
Ki: 0.728 nM

COCCn1ccc(-c2cnc(C)nc2OC[C@H]2C[C@@H]2c2ccc(C)cn2)cc1=O [Example 101, 1-(2-methoxyethyl)-4-(2-mcthyl-4-(((1S,2S)-2-(5-methylpyridin-2-yl)cyclopropyl)methoxy)pyrimidin-5-yl)pyridin-2(lH)-one]
Ki: 0.4 nM

Cc1ccc([C@H]2C[C@@H]2COc2nc(C)ncc2-c2ccc(=O)n(C(F)F)c2)nc1 [Example 14, 1-(difluoromethyl)-5-(2-methyl-4-(((1S,2S)-2-(5-methylpyridin-2-yl)cyclopropyl)methoxy)pyrimidin-5-yl)pyridin-2(1H)-one]
Ki: 1.1 nM

COc1ccc([C@H]2C[C@@H]2COc2nc(C)ncc2-c2cc(OC)c(=O)n(C)c2)nc1 [Example 17, 3-methoxy-5-(4-(((1S,2S)-2-(5-methoxypyridin-2-yl)cyclopropyl)methoxy)-2-methylpyrimidin-5-yl)-1-methylpyridin-2(1H)-one]
Ki: 0.151 nM

COc1ccc([C@H]2C[C@@H]2COc2nc(C)ncc2-c2ccn(CCC#N)c(=O)c2)nc1 [Example 112, 3-(4-(4-(((1S,2S)-2-(5-methoxypyridin-2-yl)cyclopropyl)methoxy)-2-methylpyrimidin-5-yl)-2-oxopyridin-1(2H)-yl)propanenitrile]
Ki: 0.944 nM

Cc1ccc([C@H]2C[C@@H]2COc2nc(C)ncc2-c2ccc(=O)n(C)c2)nc1 [Example 28, 1-methyl-5-(2-methyl-4-(((1S,2S)-2-(5-methylpyridin-2-yl)cyclopropyl)methoxy)pyrimidin-5-yl)pyridin-2(1H)-one]
Ki: 2.04 nM

Cc1ccc([C@H]2C[C@@H]2COc2nc(C)ncc2-c2ccn(CC#N)c(=O)c2)nc1 [Example 120, 2-(4-(2-methyl-4-(((1S,2S)-2-(5-methylpyridin-2-yl)cyclopropyl)methoxy)pyrimidin-5-yl)-2-oxopyridin-1(2H)-yl)acetonitrile]
Ki: 1.06 nM

COc1ccc([C@H]2C[C@@H]2COc2nc(C)ncc2-c2cc(=O)n(C)cc2C2CC2)nc1 [Example 132, 5-cyclopropyl-4-(4-(((1S,2S)-2-(5-methoxypyridin-2-yl)cyclopropyl)methoxy)-2-methylpyrimidin-5-yl)-1-methylpyridin-2(1H)-one]
Ki: 0.583 nM

COc1ccc([C@H]2C[C@@H]2COc2nc(C)ncc2-c2ccc(=O)n(-c3ccccc3)c2)nc1 [Example 19, 5-(4-(((1S,2S)-2-(5-methoxypyridin-2-yl)cyclopropyl)methoxy)-2-methylpyrimidin-5-yl)-1-phenylpyridin-2(1H)-one]
Ki: 4.68 nM

Cc1ncc(-c2cc(=O)n(C)cc2C)c(OC[C@H]2C[C@@H]2c2ccccn2)n1 [Example 74, 1,5-dimethyl-4-(2-methyl-4-(((1S,2S)-2-(pyridin-2-yl)cyclopropyl)methoxy)pyrimidin-5-yl)pyridin-2(1H)-one]
Ki: 16.6 nM

Cc1ccc([C@H]2C[C@@H]2COc2nc(C)ncc2-c2ccc(=O)n(C3CC3)c2)nc1 [Example 23, 1-cyclopropyl-5-(2-methyl-4-(((1S,2S)-2-(5-methylpyridin-2-yl)cyclopropyl)methoxy)pyrimidin-5-yl)pyridin-2(1H)-one]
Ki: 0.519 nM
